What is called Kd is the concentration at which binding is half-saturated. As a reminder, the IC50 is the concentration that gives 50% inhibition.

SMILES strings stand for the structures. Some results are limits rather than exact numbers.

Assay [1] has as its target T1, RARβ (Homo sapiens, UniProt P10826).
T1 sequence (P10826 1-455): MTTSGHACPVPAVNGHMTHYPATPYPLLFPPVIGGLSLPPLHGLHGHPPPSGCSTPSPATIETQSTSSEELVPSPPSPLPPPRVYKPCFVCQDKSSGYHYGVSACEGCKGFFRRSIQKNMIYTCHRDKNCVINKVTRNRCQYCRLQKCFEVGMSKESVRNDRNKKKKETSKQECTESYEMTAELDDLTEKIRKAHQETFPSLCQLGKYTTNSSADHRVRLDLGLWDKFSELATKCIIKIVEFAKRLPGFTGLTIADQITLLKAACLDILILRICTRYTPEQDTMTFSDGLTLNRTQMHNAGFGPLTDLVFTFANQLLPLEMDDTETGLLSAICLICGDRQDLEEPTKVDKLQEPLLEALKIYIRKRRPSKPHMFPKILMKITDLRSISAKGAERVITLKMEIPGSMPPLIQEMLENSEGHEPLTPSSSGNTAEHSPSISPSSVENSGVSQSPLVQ
Put plainly: ligand binding assay, RARβ. The settings on record: Kd line of EC50/(EFFICACY)/Kd, read-out: RAR Kd β.

The target in assay [2] is T2, RARγ (Homo sapiens, UniProt P13631).
T2 sequence (P13631 1-454): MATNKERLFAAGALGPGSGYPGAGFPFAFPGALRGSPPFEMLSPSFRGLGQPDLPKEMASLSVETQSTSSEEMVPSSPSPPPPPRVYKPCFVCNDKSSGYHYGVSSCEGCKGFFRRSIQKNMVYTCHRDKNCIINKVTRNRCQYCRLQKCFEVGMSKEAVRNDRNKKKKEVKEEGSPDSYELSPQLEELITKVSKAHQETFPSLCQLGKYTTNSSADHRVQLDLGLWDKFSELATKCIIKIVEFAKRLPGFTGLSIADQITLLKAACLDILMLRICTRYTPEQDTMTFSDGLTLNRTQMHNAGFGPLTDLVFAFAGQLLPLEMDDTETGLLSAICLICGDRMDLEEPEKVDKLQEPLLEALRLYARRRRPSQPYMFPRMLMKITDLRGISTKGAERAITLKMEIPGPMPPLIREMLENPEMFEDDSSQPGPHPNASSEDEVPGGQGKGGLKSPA
The experiment in a line: ligand binding assay, RARγ. The conditions noted are these: Kd line of EC50/(EFFICACY)/Kd, read-out: RAR Kd γ.

Assay [3] has as its target T3, P450RAI-1 (Homo sapiens, UniProt O43174).
T3 construct: expressed in transfected cells; host or cells: HeLa cells, stably transfected, hygromycin selection
T3 sequence (O43174 1-497): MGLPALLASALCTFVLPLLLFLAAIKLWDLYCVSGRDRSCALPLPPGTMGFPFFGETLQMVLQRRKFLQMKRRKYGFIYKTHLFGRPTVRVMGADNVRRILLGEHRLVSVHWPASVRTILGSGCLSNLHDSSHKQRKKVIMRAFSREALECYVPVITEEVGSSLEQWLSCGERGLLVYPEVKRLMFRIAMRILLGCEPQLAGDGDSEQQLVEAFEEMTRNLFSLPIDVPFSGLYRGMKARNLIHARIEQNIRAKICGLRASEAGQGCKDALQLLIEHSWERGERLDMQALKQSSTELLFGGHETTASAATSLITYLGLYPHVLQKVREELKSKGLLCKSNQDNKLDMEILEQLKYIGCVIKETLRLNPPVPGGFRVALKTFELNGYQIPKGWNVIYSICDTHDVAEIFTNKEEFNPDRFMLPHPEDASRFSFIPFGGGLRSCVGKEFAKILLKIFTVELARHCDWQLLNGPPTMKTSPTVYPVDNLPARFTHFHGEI
The experiment in a line: P450RAI-1 cell-based inhibitor assay. The conditions noted are these: P450RAI-1 stably transfected HeLa cells, [3H]-RA metabolism, 3 hours at 37° C.; read-out: P450RAI INHIBITION DATA INTACT HELA IC50. In short, it runs like this: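 HeLa cells stably expressing the enzyme (5×10^5/well) incubated 3 h at 37 °C with 0.05 μCi [3H]-all-trans-RA and compound at 10, 1 or 0.1 μM in triplicate. Water-soluble radioactive metabolites counted by scintillation; IC50 derived manually from log-transformed data.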

As to `CN(C1CC1)C1CCC(C)(C)c2cc(C#Cc3ccc(C(=O)O)cc3)ccc21` (stereo not drawn) [Compound 3, 4-[(5-Cyclopropyl-methyl-amino)-8,8-dimethyl-5,6,7,8-tetrahydro-naphthalene-2yl-ethynyl]-benzoic Acid], the figures for the Kd in assay [1] and in assay [2] were 0.8 nM and 158 nM, respectively. Also, the IC50 in assay [3] stood at 3000 nM.
For `CC1(C)CCC(=O)c2ccc(C#Cc3ccc(CC(=O)O)cc3)cc21` [Compound 5, 4-[(8,8-Dimethyl-5-oxo-5,6,7,8-tetrahydro-naphthalene-2-yl-ethynyl)-phenyl]-acetic Acid] the same measures were 2810 nM, over 10000 nM and 550 nM.
Take `CN(C1CC1)C1CCC(C)(C)c2cc(C#Cc3ccc(CC(=O)O)cc3)ccc21` (stereo not drawn) [Compound 8, 4-[(5-(Cyclopropyl-methyl-amino)-8,8-dimethyl-5,6,7,8-tetrahydro-naphthalene-2-yl-ethynyl)-phenyl]-acetic Acid]: the values for the Kd in assay [1] and in assay [2] were 3780 nM and 25000 nM, respectively. Moreover, the IC50 in assay [3] was found to be 400 nM.
As for `CC1(C)CC2(CC2)Oc2ccc(C#Cc3ccc(C(=O)O)cc3)cc21` [Compound 40, Benzoic Acid, 4-[(3,4-dihydro-4,4-dimethylspiro[2H-1-benzopyran-2,1′-cyclopropane]-6-yl)ethynyl]-], the figures for the Kd in assay [1] and in assay [2] were 1.3 nM and 363 nM, respectively. Moreover, in assay [3], the IC50 stood at 1700 nM.
Consider `CC1(C)CC2(CC2)Oc2ccc(C#Cc3ccc(C(=O)O)c(F)c3)cc21` [Compound 44, 2-Fluoro-benzoic Acid, 4-[(3,4-dihydro-4,4-dimethylspiro[2H-1-benzopyran-2,1′-cyclopropane]-6-yl)ethynyl]-], for which the Kd in assay [1] stood at 1.9 nM; in assay [2], 392 nM. Further, the IC50 in assay [3] came out at 270 nM.
For `COC1(c2ccc(C#Cc3ccc(C(=O)O)cc3)cc2)CC1` [Compound 69, 4-[4-(1-Methoxycyclopropyl)-phenylethynyl]-benzoic Acid], in that order: 133 nM, 501 nM and over 10000 nM.
For `CC(C)OC1(c2ccc(C#Cc3ccc(C(=O)O)cc3)cc2)CC1` [Compound 73, 4-[4-(1-Isopropoxycyclopropyl)-phenylethynyl]-benzoic Acid] the same measures were 26 nM, 351 nM and over 10000 nM.
For `Cc1cc(C#Cc2ccc(C(=O)O)cc2)ccc1C1(OCc2ccccc2)CC1` [Compound 81, 4-[4-(1-Benzyloxycyclopropyl)-3-methyl-phenylethynyl]-benzoic Acid], in that order: 846 nM, 1060 nM and over 10000 nM.
As for `Cc1cc(C#Cc2ccc(C(=O)O)cc2)ccc1C1(OC(C)C)CC1` [Compound 85, 4-[4-(1-Isopropoxycyclopropyl)-3-methyl-phenylethynyl]-benzoic Acid], the Kd in assay [1] is 240 nM; in assay [2] it was 302 nM. In addition, the IC50 in assay [3] was over 10000 nM.
For `Cc1cc(C#Cc2ccc(C(=O)O)cc2)ccc1C1(OCC(C)(C)C)CC1` [Compound 89, 4-[4-[1-(2,2-Dimethylpropyloxy)-cyclopropyl]-3-methyl-phenylethynyl]-benzoic Acid], in that order: 980 nM, 475 nM and over 10000 nM.
For `CCc1cc(C#Cc2ccc(C(=O)O)cc2)ccc1C1(OCc2ccccc2)CC1` [Compound 93, 4-[4-(1-Benzyloxycyclopropyl)-3-ethyl-phenylethynyl]-benzoic Acid] the same measures were 554 nM, 358 nM and over 10000 nM.
Consider `CCCNC1(c2ccc(C#Cc3ccc(C(=O)O)cc3)cc2)CC1` [Compound 108, 4-[4-(1-Propylamino-cyclopropyl)-phenylethynyl]-benzoic Acid], for which the Kd in assay [1] turned out to be 547 nM; in assay [2] it was 13000 nM. Further, the IC50 in assay [3] was over 10000 nM.
For `CCCN(CCC)C1(c2ccc(C#Cc3ccc(C(=O)O)cc3)cc2)CC1` [Compound 110, 4-[4-(1-Dipropylamino-cyclopropyl)-phenylethynyl]-benzoic Acid] the same measures were 409 nM, under 10000 nM and over 10000 nM.
Consider `O=C(O)c1ccc(C#Cc2ccc(C3(NCc4ccccc4)CC3)cc2)cc1` [Compound 112, 4-[4-(1-Benzylamino-cyclopropyl)-phenylethynyl]-benzoic Acid], for which the results for the Kd in assay [1] and in assay [2] were 704 nM and 685 nM, respectively. Besides, the IC50 in assay [3] is over 10000 nM.
